Results as given in US6335443B1, “Chemical synthesis of exochelins” (Keystone Biomedical, Inc., priority 1998, dated 2002).
“And” between values parts separate entries of the source, which are not always exact repeats. Equal entries are not always repeated.

Tested on: ferri-Exochelin 758SM
Assay: Capacity to remove iron from a different Exochelin species (Ferri-Exochelin 758SM)
Assay type: binding
Conditions: for % of Calculated Iron-Saturation at Equilibrium 0 hour / % Iron-Saturation 0 hour / % of Calculated Iron-Saturation at Equilibrium 1 hour / % Iron-Saturation 1 hour: Table 2; for % of Calculated Iron-Saturation at Equilibrium 0 hour / % of Calculated Iron-Saturation at Equilibrium 1 hour / % of Calculated Iron-Saturation at Equilibrium 0 h / % of Calculated Iron-Saturation at Equilibrium 1 h: assuming comparable affinities for iron; for affinity for iron (in words): removal of iron from ferri-Exochelin 758SM within 1 h
Experimental: C. Capacity to Remove Iron from a Different Exochelin Species. To assess the affinity of the synthetic desferri-Exochelin 772SM(R) for iron, its capacity to remove iron from a different Exochelin species, ferri-Exochelin 758SM, was evaluated. The capacity of synthetic and native desferri-Exochelin 772SM(R) to remove iron from ferri-Exochelin 758SM was also evaluated and compared. Either native or synthetic desferri-Exochelin 772SM(R) were independently mixed with ferri-Exochelin 758SM. The amount of iron acquired in 1 hour by the desferri-Exochelins was assayed by subjecting the Exochelin to reverse-phase HPLC on a phenyl column, as described above, and the area under the 450 nm absorbance peak was measured. The amount of iron-Exochelin was then calculated using a conversion factor derived from assaying known amounts of ferri-Exochelin 772SM(R).
C. Capacity to Remove Iron from a Different Exochelin Species. To assess the affinity of the synthetic desferri-Exochelin 772SM(S) for iron, its capacity to remove iron from a different exochelin species, ferri-Exochelin 758SM was evaluated. The capacity of synthetic desferri-Exochelin 772SM(S) and native desferri-Exochelin 772SM(R) to remove iron from ferri-Exochelin 758SM was also evaluated and compared. Either synthetic desferri-Exochelin 772SM(S) or native desferri-Exochelin 772SM(R) was mixed with ferri-Exochelin 758SM. The amount of iron acquired by the desferri-exochelins after 1 hour was assayed by subjecting the molecule to reverse-phase HPLC on a phenyl column, as described above, and the area under the 450 nm absorbance peak was measured. The amount of iron-exochelin was then calculated using a conversion factor derived from assaying known amounts of ferri-Exochelin 772SM(R) and ferri-Exochelin 772SM(S).

[1] = mixed with ferri-Exochelin 758SM

SMILES	% of Calculated Iron-Saturation at Equilibrium 0 hour [%]	% Iron-Saturation 0 hour [1] [%]	% of Calculated Iron-Saturation at Equilibrium 1 hour [%]	% of Calculated Iron-Saturation at Equilibrium 1 hour (listed as synthetic Exochelin 772SM(S)) [%]	% Iron-Saturation 1 hour [1] [%]	% Iron-Saturation 1 hour (mixed with ferri-Exochelin 758SM, listed as synthetic Exochelin 772SM(S)) [%]	affinity for iron (in words)	% of Calculated Iron-Saturation at Equilibrium 0 h (Table 1, 0 h, 17.3 µg 772SM(R), Experiment II) [%]	% of Calculated Iron-Saturation at Equilibrium 0 h (Table 1, 0 h, 26.1 µg 772SM(R), Experiment I) [%]	% Iron-Saturation 0 h (Table 1, 0 h, mixed with ferri-Exochelin 758SM) [%]	% of Calculated Iron-Saturation at Equilibrium 1 h (Table 1, 17.3 µg 772SM(R), Experiment II) [%]	% of Calculated Iron-Saturation at Equilibrium 1 h (Table 1, 26.1 µg 772SM(R), Experiment I) [%]	% of Calculated Iron-Saturation at Equilibrium 1 h (Table 1, listed as synthetic Exochelin 772SM(R))	% Iron-Saturation 1 h (Table 1, mixed with ferri-Exochelin 758SM, 17.3 µg 772SM(R), Experiment II) [%]	% Iron-Saturation 1 h (Table 1, mixed with ferri-Exochelin 758SM, 26.1 µg 772SM(R), Experiment I) [%]	% Iron-Saturation 1 h (Table 1, mixed with ferri-Exochelin 758SM, listed as synthetic Exochelin 772SM(R))	% of Calculated Iron-Saturation at Equilibrium 1 hour (listed as synthetic Exochelin 772SM(R)) [%]	% Iron-Saturation 1 hour (mixed with ferri-Exochelin 758SM, listed as synthetic Exochelin 772SM(R)) [%]
COC(=O)CCCCCC(=O)N(O)CCCCC(NC(=O)C1COC(c2ccccc2O)=N1)C(=O)OC(C)CC(=O)NC1CCCCN(O)C1=O [Synthetic 772SM(S), Exochelin 772SM(S)]	2.3	1.0	89.6	89.6	39.7	39.7	very high affinity for iron											
COC(=O)CCCCCC(=O)N(O)CCCCC(NC(=O)C1COC(c2ccccc2O)=N1)C(=O)OC(C)CC(=O)NC1CCCCN(O)C1=O [Synthetic 772SM(R), Exochelin 772SM(R)]	2.3	1.1	90.7		42.9		very high affinity for iron	2.0	2.7	1.1	90.2	81.3	81.3% and 90.2%	48.6	33.5	33.5% and 48.6%	90.7	42.9
